{"source": "patent US20250388553A1", "about": "(Incyte Corporation, priority 2018, published 2025)", "key": {"[1]": {"system": "Phosphorylated Ribosomal Protein S6 (RPS6) in THP-1 cells", "assay": "THP-1 RPS6 ELISA assay", "assay_type": "cell-based, Human", "conditions": "Homo sapiens; Table A4; THP-1 cells, 10 nM MCP-1, phospho-RPS6 ELISA; read-out: PI3Kγ_THP1_RPS6_ELISA IC50"}, "[2]": {"molecular_target": "PI3Kγ (p110γ) Recombinant Human Protein (Homo sapiens (Human), UniProt P48736)", "sequence (P48736 whole entry)": "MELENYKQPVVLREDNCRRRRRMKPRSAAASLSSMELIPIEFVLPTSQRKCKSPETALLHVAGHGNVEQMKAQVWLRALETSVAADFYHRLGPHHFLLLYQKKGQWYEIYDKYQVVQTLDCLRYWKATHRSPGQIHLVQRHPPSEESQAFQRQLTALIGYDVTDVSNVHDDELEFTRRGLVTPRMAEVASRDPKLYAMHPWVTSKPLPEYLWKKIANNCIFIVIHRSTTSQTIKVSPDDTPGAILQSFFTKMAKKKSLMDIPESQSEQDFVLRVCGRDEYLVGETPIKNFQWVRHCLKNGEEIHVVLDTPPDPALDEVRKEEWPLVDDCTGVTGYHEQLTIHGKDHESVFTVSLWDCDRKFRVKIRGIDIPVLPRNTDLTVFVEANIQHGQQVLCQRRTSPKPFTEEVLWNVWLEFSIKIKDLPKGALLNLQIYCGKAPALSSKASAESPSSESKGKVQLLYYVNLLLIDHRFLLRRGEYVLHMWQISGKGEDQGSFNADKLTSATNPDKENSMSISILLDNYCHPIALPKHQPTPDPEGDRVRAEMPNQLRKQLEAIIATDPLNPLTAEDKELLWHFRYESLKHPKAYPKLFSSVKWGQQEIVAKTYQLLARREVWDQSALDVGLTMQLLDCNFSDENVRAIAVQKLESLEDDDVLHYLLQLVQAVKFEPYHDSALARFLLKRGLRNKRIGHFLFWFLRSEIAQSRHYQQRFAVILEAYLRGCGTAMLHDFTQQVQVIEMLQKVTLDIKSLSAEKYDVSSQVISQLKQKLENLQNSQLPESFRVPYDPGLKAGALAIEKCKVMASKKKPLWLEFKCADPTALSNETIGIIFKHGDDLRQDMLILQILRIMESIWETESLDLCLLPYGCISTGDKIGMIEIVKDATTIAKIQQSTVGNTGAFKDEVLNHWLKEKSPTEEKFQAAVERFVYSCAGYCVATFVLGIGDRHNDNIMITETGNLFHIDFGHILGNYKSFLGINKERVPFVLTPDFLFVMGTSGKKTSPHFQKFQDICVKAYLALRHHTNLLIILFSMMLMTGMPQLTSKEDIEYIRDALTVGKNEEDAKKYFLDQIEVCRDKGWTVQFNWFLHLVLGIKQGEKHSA", "assay": "PI3K-γ scintillation proximity assay", "assay_type": "biochemical", "conditions": "Table A4; scintillation proximity assay, recombinant human p110γ"}, "[3]": {"molecular_target": "PI3Kδ (p1106/p85a) Recombinant Human Protein (Homo sapiens (Human), UniProt O00329)", "sequence (O00329 whole entry)": "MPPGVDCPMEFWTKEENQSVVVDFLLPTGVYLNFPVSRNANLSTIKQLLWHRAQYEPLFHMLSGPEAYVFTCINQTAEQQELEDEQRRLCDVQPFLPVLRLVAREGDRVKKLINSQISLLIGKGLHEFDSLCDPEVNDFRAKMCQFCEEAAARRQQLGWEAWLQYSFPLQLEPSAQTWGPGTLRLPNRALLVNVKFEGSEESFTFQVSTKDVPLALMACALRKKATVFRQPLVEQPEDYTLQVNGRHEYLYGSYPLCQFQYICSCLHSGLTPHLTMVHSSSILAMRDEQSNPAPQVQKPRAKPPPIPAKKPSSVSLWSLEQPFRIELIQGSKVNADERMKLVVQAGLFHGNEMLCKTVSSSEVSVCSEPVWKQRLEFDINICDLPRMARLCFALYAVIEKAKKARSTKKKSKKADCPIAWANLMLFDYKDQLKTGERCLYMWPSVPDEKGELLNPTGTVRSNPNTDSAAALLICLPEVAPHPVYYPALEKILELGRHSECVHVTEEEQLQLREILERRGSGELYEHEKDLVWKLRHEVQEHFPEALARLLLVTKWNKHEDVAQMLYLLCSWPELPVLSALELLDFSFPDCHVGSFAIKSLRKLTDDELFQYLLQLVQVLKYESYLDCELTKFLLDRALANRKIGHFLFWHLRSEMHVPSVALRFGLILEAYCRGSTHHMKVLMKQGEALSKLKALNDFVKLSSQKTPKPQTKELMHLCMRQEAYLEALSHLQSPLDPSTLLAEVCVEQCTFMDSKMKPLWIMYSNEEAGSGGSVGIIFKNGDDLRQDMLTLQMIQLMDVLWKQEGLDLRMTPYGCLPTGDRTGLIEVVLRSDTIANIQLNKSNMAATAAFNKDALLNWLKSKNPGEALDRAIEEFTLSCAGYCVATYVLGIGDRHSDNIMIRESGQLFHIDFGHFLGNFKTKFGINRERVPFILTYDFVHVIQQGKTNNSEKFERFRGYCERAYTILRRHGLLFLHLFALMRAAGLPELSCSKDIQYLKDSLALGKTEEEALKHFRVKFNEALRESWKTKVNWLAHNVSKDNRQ", "sequence (P27986 whole entry partner)": "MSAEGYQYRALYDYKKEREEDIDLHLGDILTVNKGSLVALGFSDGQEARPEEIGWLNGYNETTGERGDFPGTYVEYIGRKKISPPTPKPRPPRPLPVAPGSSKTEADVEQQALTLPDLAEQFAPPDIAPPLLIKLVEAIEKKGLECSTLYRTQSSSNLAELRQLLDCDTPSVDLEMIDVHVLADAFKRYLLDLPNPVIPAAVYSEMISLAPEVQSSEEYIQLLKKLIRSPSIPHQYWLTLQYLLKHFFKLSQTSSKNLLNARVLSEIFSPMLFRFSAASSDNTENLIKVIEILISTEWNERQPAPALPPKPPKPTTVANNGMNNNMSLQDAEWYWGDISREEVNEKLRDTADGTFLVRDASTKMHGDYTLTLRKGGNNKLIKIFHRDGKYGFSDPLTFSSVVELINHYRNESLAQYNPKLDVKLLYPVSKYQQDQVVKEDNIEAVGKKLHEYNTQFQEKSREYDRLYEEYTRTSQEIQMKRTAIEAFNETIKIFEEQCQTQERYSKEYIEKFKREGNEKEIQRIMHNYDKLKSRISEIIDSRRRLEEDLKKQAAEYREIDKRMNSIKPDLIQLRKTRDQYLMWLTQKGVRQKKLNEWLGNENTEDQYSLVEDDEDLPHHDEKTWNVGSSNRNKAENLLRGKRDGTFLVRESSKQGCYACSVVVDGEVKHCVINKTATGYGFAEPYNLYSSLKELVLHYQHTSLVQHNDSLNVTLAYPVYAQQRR", "assay": "PI3Kδ scintillation proximity assay", "assay_type": "biochemical", "conditions": "Table A4; scintillation proximity assay, recombinant human PI3Kδ"}}, "note": "Where a name gives a salt, the structure may show the parent alone."}
{"compound": "CCOc1ccccc1N1CCN(c2nc(-c3cc(C(O)(C(N)=O)C(F)(F)F)ccc3C)cnc2N)CC1", "note": "(stereo not drawn) [Example 129, 2-(3-(5-amino-6-(4-(2-ethoxyphenyl)piperazin-1-yl)pyrazin-2-yl)-4-methylphenyl)-3,3,3-trifluoro-2-hydroxypropanamide trifluoroacetate]", "values": [{"measurement": "IC50", "setting": "[1]", "result": "500 to 1000", "unit": "nM"}, {"measurement": "IC50", "setting": "[2]", "result": "< 100", "unit": "nM"}, {"measurement": "IC50", "setting": "[3]", "result": "100 to 500", "unit": "nM"}]}
